Assay results: patent US20100120700A1, “METHODS AND COMPOSITIONS FOR TREATING CERVICAL CANCER” (priority 2000, published 2010)
Values joined by “and” are separate entries in the source; they are usually repeats but may differ in a detail not shown here. Equal entries are not always repeated.

How the values were obtained:
Test in all cases: G assay PDZ-PL binding
Conditions in all cases: peptide 10 uM, protein 5
[1] = target: T1, ZO-2 domain 2 (Homo sapiens, UniProt Q9UDY2)
T1 construct: made in house; host or cells: E. coli (DH5alpha, BL21 or JM109)
T1 sequence (Q9UDY2 with tags, fused parts or gaps): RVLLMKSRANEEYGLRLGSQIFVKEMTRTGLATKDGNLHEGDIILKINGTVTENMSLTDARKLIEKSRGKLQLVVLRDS
Experimental: (§1) (1) A PDZ-domain polypeptide is bound to a surface, e.g. a protein binding surface. In a preferred embodiment, a GST/PDZ fusion protein containing one or more PDZ domains is bound to a polystyrene 96-well plate. […] In one embodiment, the GST/PDZ fusion protein is bound via an anti-GST antibody that is coated onto the 96-well plate. Adequate binding to the plate can be achieved when: • a. 100 uL per well of 5 ug/mL goat anti-GST polyclonal antibody (Pierce) in PBS is added to a polystyrene 96-well plate (e.g., Num Polysorb) at 4° C. for 12 hours. • b. The plate is blocked by addition of 200 uL per well of PBS/BSA for 2 hours at 4° C. • c. The plate is washed 3 times with PBS. • d. 50 uL per well of 5 ug/mL GST/PDZ fusion protein) or, as a negative control, GST polypeptide alone (i.e. not a fusion protein) in PBS/BSA is added to the plate for 2 hours at 4° C. • e. The plate is again washed 3 times with PBS.
(§2) (2) Biotinylated PL peptides are allowed to react with the surface by addition of 50 uL per well of 20 uM solution of the biotinylated peptide in PBS/BSA for 10 minutes at 4° C., followed by an additional 20 minute incubation at 25° C.
(§3) (3) The binding of the biotinylated peptide to the GST/PDZ fusion protein surface can be detected using a variety of methods and detectors known to one of skill in the art. In one embodiment, 100 uL per well of 0.5 ug/mL streptavidin-horse radish peroxidase (HRP) conjugate dissolved in BSA/PBS is added and allowed to react for 20 minutes at 4° C. The plate is then washed 5 times with 50 mM Tris pH 8.0 containing 0.2% Tween 20, and developed by addition of 100 uL per well of HRP-substrate solution (TMB, Dako) for 20 minutes at room temperature (RT). The reaction of the HRP and its substrate is terminated by addition of 100 uL per well of 1M sulfuric acid, and the absorbance of each well of the plate is read at 450 nm.
(§4) (4) Specific binding of a PL peptide and a PDZ domain polypeptide is determined by comparing the signal from the well(s) in which the PL peptide and PDZ domain polypeptide are combined, with the background signal(s). The background signal is the signal found in the negative control(s). Typically a specific or selective reaction will be at least twice background signal, more typically more than 5 times background, and most typically 10 or more times the background signal. In addition, a statistically significant reaction will involve multiple measurements of the reaction with the signal and the background differing by at least two standard errors, more typically four standard errors, and most typically six or more standard errors. Correspondingly, a statistical test (e.g. a T-test) comparing repeated measurements of the signal with-repeated measurements of the background will result in a p-value<0.05, more typically a p-value<0.01, and most typically a p-value<0.001 or less. As noted, in an embodiment of the “G” assay, the signal from binding of a given PL peptide to immobilized (surface bound) GST polypeptide alone is one suitable negative control (sometimes referred to as “B 1”). Because all measurement are done in multiples (i.e. at least duplicate) the arithmetic mean (or, equivalently, average.) of several measurements is used in determining the binding, and the standard error of the mean is used in determining the probable error in the measurement of the binding. The standard error of the mean of N measurements equals the square root of the following: the sum of the squares of the difference between each measurement and the mean, divided by the product of (N) and (N−1). Thus, in one embodiment, specific binding of the PDZ protein to the platebound peptide is determined by comparing the mean signal (“mean S”) and standard error of the signal (“SE”) for a particular PL-PDZ combination with the mean B1. […]

[2] = target: T2, CARD14 domain 1 (Homo sapiens, UniProt Q9BXL6)
T2 construct: made in house; host or cells: E. coli (DH5alpha, BL21 or JM109)
T2 sequence (Q9BXL6 565-664): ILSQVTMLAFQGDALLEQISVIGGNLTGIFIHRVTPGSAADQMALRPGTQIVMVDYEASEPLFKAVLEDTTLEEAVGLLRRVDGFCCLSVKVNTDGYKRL
Experimental: as §1, §2, §3, §4

[3] = target: T3, PAR3 #278.1 domain 3 (Homo sapiens, UniProt Q8TEW0)
T3 construct: made in house; host or cells: E. coli (DH5alpha, BL21 or JM109)
T3 sequence (Q8TEW0 579-681): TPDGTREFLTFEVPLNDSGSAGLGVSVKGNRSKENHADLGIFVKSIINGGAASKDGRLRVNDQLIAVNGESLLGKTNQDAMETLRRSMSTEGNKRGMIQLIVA
Experimental: as §1, §2, §3, §4

[4] = target: T4, KIAA0751 domain 1 (Homo sapiens, UniProt Q9UQ26)
T4 construct: made in house; host or cells: E. coli (DH5alpha, BL21 or JM109)
T4 sequence (Q9UQ26 with tags, fused parts or gaps): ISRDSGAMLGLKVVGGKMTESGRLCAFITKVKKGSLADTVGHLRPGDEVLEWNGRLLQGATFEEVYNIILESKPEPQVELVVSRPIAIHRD
Experimental: as §1, §2, §3, §4

[5] = target: T5, PSD95 domain 1, 2, 3 (Homo sapiens, UniProt P78352)
T5 construct: the DNA portion cloned represents the PDZ domains and the cDNA portion located between individual domains; made in house; host or cells: E. coli (DH5alpha, BL21 or JM109)
T5 sequence (P78352 62-395): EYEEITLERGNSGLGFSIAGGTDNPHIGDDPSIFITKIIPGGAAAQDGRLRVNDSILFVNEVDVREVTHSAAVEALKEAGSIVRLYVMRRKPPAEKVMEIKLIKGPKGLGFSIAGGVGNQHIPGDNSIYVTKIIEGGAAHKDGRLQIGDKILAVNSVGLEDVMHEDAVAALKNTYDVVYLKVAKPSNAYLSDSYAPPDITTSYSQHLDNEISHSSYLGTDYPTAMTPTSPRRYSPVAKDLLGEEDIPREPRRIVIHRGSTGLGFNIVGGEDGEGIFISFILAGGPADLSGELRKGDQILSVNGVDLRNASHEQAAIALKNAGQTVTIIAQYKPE
Experimental: as §1, §2, §3, §4

[6] = target: T6, NeDLG domain 1, 2 (Homo sapiens, UniProt Q92796)
T6 construct: the DNA portion cloned represents the PDZ domains and the cDNA portion located between individual domains; made in house; host or cells: E. coli (DH5alpha, BL21 or JM109)
T6 sequence (Q92796 129-315 limits assumed): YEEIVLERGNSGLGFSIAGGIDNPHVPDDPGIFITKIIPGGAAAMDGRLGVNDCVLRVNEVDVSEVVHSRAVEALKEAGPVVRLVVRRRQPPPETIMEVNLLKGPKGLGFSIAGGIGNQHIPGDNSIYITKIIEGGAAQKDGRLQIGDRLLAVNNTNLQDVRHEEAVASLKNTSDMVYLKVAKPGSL
Experimental: as §1, §2, §3, §4

[7] = target: T7, KIAA1719 domain 3 (Homo sapiens, UniProt Q9C0E4)
T7 construct: made in house; host or cells: E. coli (DH5alpha, BL21 or JM109)
T7 sequence (Q9C0E4 with tags, fused parts or gaps): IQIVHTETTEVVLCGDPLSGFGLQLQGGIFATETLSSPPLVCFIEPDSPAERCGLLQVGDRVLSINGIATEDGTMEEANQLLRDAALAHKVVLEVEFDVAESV
Experimental: as §1, §2, §3, §4

[8] = target: T8, Outer Membrane domain 1 (Homo sapiens, UniProt P57105)
T8 construct: made in house; host or cells: E. coli (DH5alpha, BL21 or JM109)
T8 sequence (P57105 with tags, fused parts or gaps): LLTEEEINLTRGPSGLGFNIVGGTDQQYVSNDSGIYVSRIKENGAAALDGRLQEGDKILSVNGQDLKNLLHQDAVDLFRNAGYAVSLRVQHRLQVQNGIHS
Experimental: as §1, §2, §3, §4

[9] = target: T9, novel PDZ gene domain 1 (Homo sapiens, UniProt Q9H5P4)
T9 construct: made in house; host or cells: E. coli (DH5alpha, BL21 or JM109)
T9 sequence (Q9H5P4 with tags, fused parts or gaps): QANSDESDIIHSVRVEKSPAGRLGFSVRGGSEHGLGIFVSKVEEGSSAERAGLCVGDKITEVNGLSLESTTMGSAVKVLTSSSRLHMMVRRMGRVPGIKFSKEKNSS
Experimental: as §1, §2, §3, §4

[10] = target: T10, EBP50 #311.1 domain 1 (Homo sapiens, UniProt O14745)
T10 construct: made in house; host or cells: E. coli (DH5alpha or BL-21)
T10 sequence (O14745 with tags, fused parts or gaps): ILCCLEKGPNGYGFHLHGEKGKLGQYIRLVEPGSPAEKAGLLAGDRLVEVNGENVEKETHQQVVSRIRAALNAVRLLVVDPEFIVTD
Experimental: as §1, §2, §3, §4

[11] = target: T11, KIAA0973 #288.2 domain 1 (Homo sapiens, UniProt Q9Y2H9)
T11 construct: made in house; host or cells: E. coli (DH5alpha, BL21 or JM109)
T11 sequence (Q9Y2H9 963-1055): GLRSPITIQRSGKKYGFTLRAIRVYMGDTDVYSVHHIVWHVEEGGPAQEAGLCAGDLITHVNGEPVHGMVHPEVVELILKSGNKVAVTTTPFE
Experimental: as §1, §2, §3, §4

[12] = target: T12, PDZ-73 domain 2 (Homo sapiens, UniProt Q9Y6N9)
T12 construct: made in house; host or cells: E. coli (DH5alpha, BL21 or JM109), vector pGEX-3X
T12 sequence (Q9Y6N9 with tags, fused parts or gaps): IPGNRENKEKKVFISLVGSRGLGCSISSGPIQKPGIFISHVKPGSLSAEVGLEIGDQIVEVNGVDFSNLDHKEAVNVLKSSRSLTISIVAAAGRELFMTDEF
Experimental: as §1, §2, §3, §4

[13] = target: T13, Syntrophin beta 2 domain 1 (Homo sapiens, UniProt Q13425)
T13 construct: made in house; host or cells: E. coli (DH5alpha, BL21 or JM109)
T13 sequence (Q13425 with tags, fused parts or gaps): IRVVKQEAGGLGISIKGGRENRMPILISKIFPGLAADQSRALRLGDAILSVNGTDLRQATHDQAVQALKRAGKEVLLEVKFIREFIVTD
Experimental: as §1, §2, §3, §4

[14] = target: T14, SITAC-18 domain 2 (Homo sapiens, UniProt Q9H190)
T14 construct: made in house; host or cells: E. coli (DH5alpha, BL21 or JM109)
T14 sequence (Q9H190 with tags, fused parts or gaps): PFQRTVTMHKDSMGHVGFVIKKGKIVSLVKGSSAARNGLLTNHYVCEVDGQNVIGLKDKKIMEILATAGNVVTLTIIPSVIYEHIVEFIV
Experimental: as §1, §2, §3, §4

20 mer peptide corresponding to the C-terminus of HPV16 E6 (PDZ ligand), biotinylated in binding assays; ends SSRTRRETQL (SEQ ID NO: 13) [HPV E6 #16]
Ave OD ([1]; A450 nm): 0.3565 | OD S/N ([1]; vs GST only well): 2.15 | Ave OD ([2]; A450 nm): 0.342 | OD S/N ([2]; vs GST only well): 1.52 | Ave OD ([3]; A450 nm): 0.352 | OD S/N ([3]; vs GST only well): 1.80 | Ave OD ([4]; A450 nm): 0.4505 | OD S/N ([4]; vs GST only well): 2.10 | Ave OD ([5]; A450 nm): 3.523 and 3.866 | OD S/N ([5]; vs GST only well): 22.58 and 19.67 | Ave OD ([6]; A450 nm): 3.401 and 3.118 | OD S/N ([6]; vs GST only well): 19.83 and 17.13 | Ave OD ([7]; A450 nm): 0.346 | OD S/N ([7]; vs GST only well): 1.65 | Ave OD ([8]; A450 nm): 2.392 and 1.3595 | OD S/N ([8]; vs GST only well): 11.39 and 6.25 | Ave OD ([9]; A450 nm): 0.5455 | OD S/N ([9]; vs GST only well): 1.89 | Ave OD ([10]; A450 nm): 0.4325 | OD S/N ([10]; vs GST only well): 2.05 | Ave OD ([11]; A450 nm): 2.8295 and 3.85 | OD S/N ([11]; vs GST only well): 10.11 and 16.42 | Ave OD ([12]; A450 nm): 0.5615 | OD S/N ([12]; vs GST only well): 1.95 | Ave OD ([13]; A450 nm): 1.1585 and 1.0325 | OD S/N ([13]; vs GST only well): 5.81 and 5.35 | Ave OD ([14]; A450 nm): 0.484 | OD S/N ([14]; vs GST only well): 2.46
